Target: T1, PD brain-derived a-syn aggregates (Homo sapiens, UniProt P37840)
T1 construct: from tissue; host or cells: human PD donor brain, sarkosyl-insoluble 100,000 x g pellet
Experiment: Micro-radiobinding competition assay against Example-1 [^3H-1] (Table 8)
Type: binding
Settings: human PD brain-derived a-syn aggregates; for Competition at 100 nM (%): 100 nM non-radiolabelled example compound vs Example-1 [^3H-1] ligand; for Competition at 1 μM (%): 1 μM non-radiolabelled example compound vs Example-1 [^3H-1] ligand
Protocol: PD brain-derived a-syn aggregates were spotted onto microarray slides. The slides were incubated with the Example-1 [^3H-1] at 6 nM or 20 nM and the example compounds (non-radiolabelled) at 1 μM and 100 nM. In some cases, the non-radiolabelled example compounds were further assessed for a range of different concentrations, varying from 0.05 nM to 2 μM. After incubation, slides were washed and scanned by a real-time autoradiography system (BeaQuant, ai4R). Quantification of the signal was performed by using the Beamage image analysis software (ai4R). […] All measurements were performed with at least two technical replicates. For compounds tested in more than one experiment, the mean of the replicates or K; values in independent experiments is reported.
Results: Example compounds were assessed for their potency to compete with the binding of Example-1 [^3H-1] ligand to PD patient brain-derived a-syn aggregates. Results of the micro-radiobinding competition assay for the example compounds tested are shown in Table 8 as: % competition at 1 μM and 100 nM.

Row | SMILES | Competition at 100 nM (%) | Competition at 1 μM (%)
1 | Cn1cnc(N2Cc3nn(-c4ccc(N5CC[C@@H](F)C5)nc4)cc3C2=O)c1 [Example 133] | 59% | 
2 | O=C1c2cn(-c3ccc(N4CC[C@@H](F)C4)nc3)nc2CN1c1nccs1 [Example 134] | 74% | 
3 | CN(C)c1ccc(-n2cc3c(n2)CN(c2cccnc2)C3=O)cn1 [Example 135] | 67% | 96%
4 | O=C1c2cn(-c3ccc(N4CC[C@H](F)C4)nc3)nc2CN1c1nccs1 [Example 136] | 75% | 
5 | O=C1c2cn(-c3ccc(N4CC[C@@H](F)C4)nc3)nc2CN1c1ncco1 [Example 137] | 35% | 84%
6 | O=C1c2cn(-c3ccc(F)cn3)nc2CN1c1cccnc1 [Example 138] | 32% | 57%
7 | O=C1c2cn(-c3ccc(N4CCCC4)nc3)nc2CN1c1cccc(F)n1 [Example 140] | 67% | 
8 | O=C1c2cn(-c3ccc(N4CCOCC4)nc3)nc2CN1c1cncc(F)n1 [Example 141] | 51% | 66%
9 | Cc1c2c(nn1-c1ccc(N3CCCC3)nc1)CN(c1cccc(F)n1)C2=O [Example 144] | 49% | 68%
10 | Cn1ccc(-n2cc3c(n2)CN(c2cccc(F)n2)C3=O)n1 [Example 145] | 46% | 76%
11 | Cc1c2c(nn1-c1ccc(N3CCCC3)nc1)CN(c1cncc(F)n1)C2=O [Example 146] | 32% | 53%
12 | COc1ccc(-n2cc3c(n2)CN(c2cncc(F)n2)C3=O)cn1 [Example 147] | 72% | 86%
13 | Cn1cc(-n2cc3c(n2)CN(c2cncc(F)n2)C3=O)cn1 [Example 149] |  | 53%
14 | Cn1cc(-n2cc3c(n2)CN(c2cccc(F)n2)C3=O)cn1 [Example 150] | 37% | 46%
15 | O=C1c2cn(-c3ccc(N4CC[C@@H](F)C4)nc3)nc2CN1c1cccnn1 [Example 152] | 39% | 86%
16 | CC(C)c1ccc(-n2cc3c(n2)CN(c2cncc(F)n2)C3=O)cn1 [Example 153] | 31% | 57%
17 | O=C1c2cn(-c3ccc(C4CCCC4)nc3)nc2CN1c1cccc(F)n1 [Example 154] | 81% | 99%
18 | N#Cc1ccc(-n2cc3c(n2)CN(c2cncc(F)n2)C3=O)cn1 [Example 155] | 51% | 94%
19 | N#Cc1ccc(-n2cc3c(n2)CN(c2cccc(F)n2)C3=O)cn1 [Example 156] | 80% | 85%
20 | CC(C)c1ccc(-n2cc3c(n2)CN(c2cccc(F)n2)C3=O)cn1 [Example 157] | 21% | 43%
21 | CC(C)Oc1ccc(-n2cc3c(n2)CN(c2cncc(F)n2)C3=O)cn1 [Example 158] | 19% | 54%
22 | COc1ccc(-n2cc3c(n2)CN(c2cccc(F)n2)C3=O)cn1 [Example 159] | 46% | 67%
23 | CC(C)Oc1ccc(-n2cc3c(n2)CN(c2cccc(F)n2)C3=O)cn1 [Example 160] | 51% | 73%

Reference: patent publication US12552800B2, “Compounds for diagnosis” (AC IMMUNE SA, priority 2020, dated 2026)
